Reference: article PMC12692955, “Acetylbinankadsurin A Decreases Macrophage Glycolysis and Pro-Inflammatory Phenotype Polarization via Inhibiting HIF-1α to Alleviate Hepatic Fibrosis in Mice” (Molecules, 2025)

Molecular target: T1, HIF-1α (Homo sapiens, UniProt Q16665)
T1 construct: gene HIF1A; recombinant protein HIF-1α (MCE #HY-P74888)
Assay: SPR (Biacore T200, HIF-1α amine-coupled to CM5 chip)
Type: binding

T1 sequence (Q16665 whole entry): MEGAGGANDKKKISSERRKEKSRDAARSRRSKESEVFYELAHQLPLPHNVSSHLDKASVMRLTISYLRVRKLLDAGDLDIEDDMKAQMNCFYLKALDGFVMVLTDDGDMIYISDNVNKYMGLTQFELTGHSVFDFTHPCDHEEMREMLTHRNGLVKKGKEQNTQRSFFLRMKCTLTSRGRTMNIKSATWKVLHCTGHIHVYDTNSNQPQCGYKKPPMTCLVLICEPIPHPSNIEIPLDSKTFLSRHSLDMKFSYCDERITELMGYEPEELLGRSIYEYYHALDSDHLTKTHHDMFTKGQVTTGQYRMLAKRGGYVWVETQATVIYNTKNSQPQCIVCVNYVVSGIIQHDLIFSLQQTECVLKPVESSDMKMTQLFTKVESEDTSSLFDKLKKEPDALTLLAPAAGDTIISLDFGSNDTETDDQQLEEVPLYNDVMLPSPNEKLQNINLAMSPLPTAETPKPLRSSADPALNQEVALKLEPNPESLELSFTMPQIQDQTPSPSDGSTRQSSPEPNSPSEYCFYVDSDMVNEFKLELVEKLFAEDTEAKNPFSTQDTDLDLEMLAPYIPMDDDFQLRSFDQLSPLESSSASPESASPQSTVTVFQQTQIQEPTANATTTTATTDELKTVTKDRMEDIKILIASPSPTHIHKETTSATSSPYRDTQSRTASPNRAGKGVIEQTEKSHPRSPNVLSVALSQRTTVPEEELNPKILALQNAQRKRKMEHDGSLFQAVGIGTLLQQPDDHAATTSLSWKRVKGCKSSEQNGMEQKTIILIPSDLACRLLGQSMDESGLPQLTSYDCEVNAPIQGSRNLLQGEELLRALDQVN

## COc1cc2c(c(O)c1OC)-c1c(cc3c(c1OC)OCO3)[C@H](OC(C)=O)[C@H](C)[C@H](C)C2 [ACBA, Acetylbinankadsurin A]
  Kd: 13 µM
